From patent US5055459A, “Selective elimination of malignant cells from bone marrow by bis (acyloxy) propylphosphoramidates” (Board of Regents, The University of Texas, priority 1989, dated 1991)
Values after ≈ are worked out from the molar mass of the structure shown. Read-outs that look alike come from different tables or passages of the source. Each block holds one molecule with its values, some of them ahead of it.

Key:
[1] = test system: L1210 leukemia cells; experiment: cells; type: cell-based, murine; settings: Mus musculus
[2] = test system: cyclophosphamide-resistant L1210 and P-388 cell-lines; settings: cited from earlier work
[3] = test system: L1210 leukemia cells; experiment: Growth inhibition of L1210 leukemia cells in vitro by nucleoside analogues (Table 7); type: cell-based, murine; settings: Mus musculus, growth inhibition by 50%, exposure 96 h, then 72 h drug-free culture
Experimental: The effectiveness against growth of L1210 cells of 1 these nucleoside analogs was tested and the growth inhibition shown in Table 7.
^a Exponentially growing cells were exposed to varying drug
concentrations for 96 h at 37° C. The cells were then centrifuged,
resuspended, and cultured in drugfree medium for 72 h.
^b The drug concentration that inhibited cell growth by 50% compared
to untreated control cultures.

[4] = test system: L1210 lymphatic leukemia cells; experiment: cells; type: cell-based, murine
[5] = test system: KBM-3/DOX; experiment: cells; type: cell-based, human; settings: human, kbm-3/dox cells
[6] = test system: KBM-3/AMSA; experiment: cells; type: cell-based, human; settings: human, kbm-3/amsa cells
[7] = test system: GM-CFC from normal human bone marrow

SMILES: COc1cccc2c1C(=O)c1c(O)c3c(c(O)c1C2=O)C[C@@](O)(C(C)=O)C[C@@H]3O[C@H]1C[C@H](NP(=O)(NCCCl)OCCC(OC(=O)C(C)(C)C)OC(=O)C(C)(C)C)[C@H](O)[C@H](C)O1 (stereo partly drawn) [Compound C-8]
- IC50 [1]: 30 nM

SMILES: CCOP(=O)(CCC=O)c1ccccc1 (stereo not drawn) [ethylphenyl(2-formylethyl) phosphinate]
- effect on cytotoxicity of 4-hydroperoxycyclophosphamide and ASTA Z 7557 [2]: potentiate the cytotoxicity

SMILES: COc1cccc2c1C(=O)c1c(O)c3c(c(O)c1C2=O)C[C@@](O)(C(=O)CO)C[C@@H]3O[C@H]1C[C@H](NP(=O)(NCCCl)OCCC(OC(=O)C(C)(C)C)OC(=O)C(C)(C)C)[C@H](O)[C@H](C)O1 (stereo partly drawn) [Compound C-7]
- IC50 [1]: 35 nM

SMILES: CCN(CC)C(=S)S [diethyl dithiocarbamate]
- effect on cytotoxicity of 4-hydroperoxycyclophosphamide and ASTA Z 7557 ([2]; cyclophosphamide-resistant L1210 and P-388): potentiate the cytotoxicity

SMILES: COc1cccc2c1C(=O)c1c(O)c3c(c(O)c1C2=O)C[C@@](O)(C(=O)CO)C[C@@H]3O[C@H]1C[C@H](NP(=O)(NCCCl)OCCC(OC(C)=O)OC(C)=O)[C@H](O)[C@H](C)O1 (stereo partly drawn) [Compound C-3]
- IC50 [1]: 21 nM

- IC50 [3]: 700 nM
SMILES: CC(C)(C)C(=O)OC(CCOP(N)(=O)OC[C@@H]1CC[C@H](n2ccc(=O)[nH]c2=O)O1)OC(=O)C(C)(C)C (stereo partly drawn) [Compound D-2]

SMILES: N#CN [cyanamide]
- effect on cytotoxicity of 4-hydroperoxycyclophosphamide and ASTA Z 7557 [2]: potentiate the cytotoxicity

- IC50 [3]: 1300 nM
SMILES: CC(=O)OC(CCOP(N)(=O)OC[C@@H]1CC[C@H](n2cc(C)c(=O)[nH]c2=O)O1)OC(C)=O (stereo partly drawn) [Compound D-3]

SMILES: CC(=O)OC(CCOP(=O)(NCCCl)NCCCl)OC(C)=O [Compound 22-F, 0-(3,3-Diacetatopropyl)-N-(2-chloroethyl)-N-(2chloroethyl)phosphorodiamide]
- toxicity to L1210 cells, comparison in words [4]: much more potent than ASTA Z 7557
- IC50 ([4]; Mus musculus, L1210, 72 h, read-out: ED50): 1.7 µg/mL (≈ 4.48 µM)

SMILES: COc1cccc2c1C(=O)c1c(O)c3c(c(O)c1C2=O)C[C@@](O)(C(C)=O)C[C@@H]3O[C@H]1C[C@H](NP(=O)(NCCCl)OCCC(OC(C)=O)OC(C)=O)[C@H](O)[C@H](C)O1 (stereo partly drawn) [Compound C-4]
- IC50 [1]: 25 nM

SMILES: COc1cccc2c1C(=O)c1c(O)c3c(c(O)c1C2=O)C[C@@](O)(C(=O)CO)C[C@@H]3O[C@H]1C[C@H](N)[C@H](O)[C@H](C)O1 [doxorubicin, reference compound]
- resistance of subline to doxorubicin [5]: 100 fold

SMILES: COc1cc(NS(C)(=O)=O)ccc1Nc1c2ccccc2nc2ccccc12 [m-AMSA, 4'-(9-acridinylamino)-3-methanesulfon-m-amisidide, reference compound]
- resistance of subline to m-AMSA [6]: 130 fold
- GM-CFC recovery kinetics / progenitor sparing, in words [7]: nonselective killing of mature (GM-CFC) and primitive (pluripotent) myeloid progenitor cells

SMILES: CCN(CC)C(=S)SSC(=S)N(CC)CC [disulfiram]
- effect on cytotoxicity of 4-hydroperoxycyclophosphamide and ASTA Z 7557 [2]: potentiate the cytotoxicity
- sensitization of resistant L1210 cell-line [2]: rendered drug-sensitive

- IC50 [3]: 1400 nM
SMILES: CC(=O)OC(CCOP(N)(=O)OC[C@@H]1CC[C@H](n2ccc(=O)[nH]c2=O)O1)OC(C)=O (stereo partly drawn) [Compound D-1]

- IC50 [3]: 1600 nM
SMILES: Cc1cn([C@H]2CC[C@@H](COP(N)(=O)OCCC(OC(=O)C(C)(C)C)OC(=O)C(C)(C)C)O2)c(=O)[nH]c1=O (stereo partly drawn) [Compound D-4]
